Assay results as given in patent US9012443B2 (Amgen Inc., priority 2011, dated 2015).
Structures can show the parent of a compound that is named as a salt.

Key:
Nav 1.7 [1] = molecular target: T1, Nav 1.7 (Homo sapiens (Human), UniProt Q15858); assay: Nav 1.7 IWQ in vitro assay (IonWorks Quattro population patch-clamp); assay type: cell-based; settings: for IC50: 293 cells stably transfected with Nav 1.7, second part of table, read-out: Nav1.7 IWQ IC50 IP
Procedure, shortened: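 Percent block, measured in duplicate, came from peak minus end-of-pulse current on the 26th −20 mV step, and IC50 was fitted against concentration. Stably transfected 293 cells were recorded in population patch-clamp mode before and after a single test concentration, which was added over 3–8 min while cells were unclamped.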

Nav 1.7 [2] = molecular target: T1, Nav 1.7; assay: Nav 1.7 in vitro PX assay (PatchXpress whole cell voltage clamp); assay type: cell-based; settings: 293 cells, human Nav1.7, partially inactivated state; read-out: Nav1.7 PX IC50 IP
Procedure, shortened: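 Partially inactivated channel state (holding potential for 20–50% inactivation) probed in human Nav1.7-transfected 293 cells by automated patch clamp, test pulse −10 mV for 20 msec.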

T1 sequence (Q15858 whole entry): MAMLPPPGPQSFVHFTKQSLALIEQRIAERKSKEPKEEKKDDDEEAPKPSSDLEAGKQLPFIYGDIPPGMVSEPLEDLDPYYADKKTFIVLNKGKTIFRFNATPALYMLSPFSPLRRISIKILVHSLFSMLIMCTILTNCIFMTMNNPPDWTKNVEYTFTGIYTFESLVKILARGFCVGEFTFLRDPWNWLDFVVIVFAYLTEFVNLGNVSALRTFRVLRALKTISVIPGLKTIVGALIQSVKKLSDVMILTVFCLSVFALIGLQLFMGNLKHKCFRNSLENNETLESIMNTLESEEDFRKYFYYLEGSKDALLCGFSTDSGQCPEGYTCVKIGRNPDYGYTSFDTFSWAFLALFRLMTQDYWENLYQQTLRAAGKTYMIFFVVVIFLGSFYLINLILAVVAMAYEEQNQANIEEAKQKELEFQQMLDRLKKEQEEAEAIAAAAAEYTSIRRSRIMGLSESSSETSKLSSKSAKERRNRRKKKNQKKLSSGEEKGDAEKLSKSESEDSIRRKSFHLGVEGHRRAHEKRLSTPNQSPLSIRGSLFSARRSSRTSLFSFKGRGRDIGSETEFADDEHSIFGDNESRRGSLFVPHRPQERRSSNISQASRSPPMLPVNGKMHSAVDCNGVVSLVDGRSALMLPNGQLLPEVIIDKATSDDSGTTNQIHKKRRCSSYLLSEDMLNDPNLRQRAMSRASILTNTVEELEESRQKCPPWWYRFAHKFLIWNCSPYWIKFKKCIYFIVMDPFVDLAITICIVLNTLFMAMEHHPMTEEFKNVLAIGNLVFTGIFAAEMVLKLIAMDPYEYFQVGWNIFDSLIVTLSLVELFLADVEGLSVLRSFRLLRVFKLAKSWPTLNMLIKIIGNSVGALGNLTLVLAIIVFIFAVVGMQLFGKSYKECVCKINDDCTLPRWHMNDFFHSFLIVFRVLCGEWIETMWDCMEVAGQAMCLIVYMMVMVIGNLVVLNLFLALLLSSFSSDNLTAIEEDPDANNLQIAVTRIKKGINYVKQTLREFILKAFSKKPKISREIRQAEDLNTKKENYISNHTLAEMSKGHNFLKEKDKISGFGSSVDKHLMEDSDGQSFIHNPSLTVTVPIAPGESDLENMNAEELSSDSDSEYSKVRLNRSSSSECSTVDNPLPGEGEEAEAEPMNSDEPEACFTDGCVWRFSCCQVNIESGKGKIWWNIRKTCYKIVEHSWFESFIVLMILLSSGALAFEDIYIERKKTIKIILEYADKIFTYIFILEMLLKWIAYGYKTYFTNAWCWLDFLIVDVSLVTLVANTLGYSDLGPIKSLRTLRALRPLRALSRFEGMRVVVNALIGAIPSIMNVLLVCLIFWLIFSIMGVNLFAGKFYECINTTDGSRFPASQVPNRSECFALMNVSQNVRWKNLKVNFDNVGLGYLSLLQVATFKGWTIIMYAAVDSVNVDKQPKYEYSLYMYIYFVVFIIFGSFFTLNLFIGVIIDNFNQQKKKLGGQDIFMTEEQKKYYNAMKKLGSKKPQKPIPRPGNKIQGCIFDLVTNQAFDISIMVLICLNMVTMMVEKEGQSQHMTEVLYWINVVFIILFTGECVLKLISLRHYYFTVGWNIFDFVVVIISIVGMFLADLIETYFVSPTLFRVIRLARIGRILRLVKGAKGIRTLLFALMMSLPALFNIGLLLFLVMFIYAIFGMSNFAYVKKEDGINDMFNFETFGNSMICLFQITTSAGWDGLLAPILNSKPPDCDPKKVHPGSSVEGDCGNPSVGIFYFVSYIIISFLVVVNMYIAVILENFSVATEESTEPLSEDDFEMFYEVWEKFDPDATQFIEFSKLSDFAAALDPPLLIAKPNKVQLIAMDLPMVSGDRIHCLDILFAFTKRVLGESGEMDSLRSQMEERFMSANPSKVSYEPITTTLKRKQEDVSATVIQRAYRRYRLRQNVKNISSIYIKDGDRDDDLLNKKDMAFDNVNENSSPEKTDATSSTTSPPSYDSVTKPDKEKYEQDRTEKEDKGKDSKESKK

SMILES	IC50 (Nav 1.7 [1]) [nM]	IC50 (Nav 1.7 [2]) [nM]	Nav1.7 Single Point Data IWQ (at […]) (%) (Nav 1.7 [1]; at […])
COc1cc(-c2cnn(C)c2)ccc1-c1nccc2cc(S(=O)(=O)Nc3nccs3)ccc12 [Example 203, 1-(2-METHOXY-4-(1-METHYL-1H-PYRAZOL-4-YL)PHENYL)-N-(THIAZOL-2-YL)ISOQUINOLINE-6-SULFONAMIDE]	310	3290	
COc1cc(C(F)(F)F)ccc1-c1nccc2cc(S(=O)(=O)Nc3ncccn3)ccc12 [Example 188, 1-(2-METHOXY-4-(TRIFLUOROMETHYL)PHENYL)-N-(PYRIMIDIN-2-YL)ISOQUINOLINE-6-SULFONAMIDE]	200	3540	
COc1cc(F)ccc1-c1nccc2cc(S(=O)(=O)Nc3ccncn3)ccc12 [Example 167, 1-(4-FLUORO-2-METHOXYPHENYL)-N-(PYRIMIDIN-4-YL)ISOQUINOLINE-6-SULFONAMIDE]	50	4260	
O=S(=O)(Nc1nccs1)c1ccc2c(-c3ccc(F)cc3-c3ccncc3)nccc2c1 [Example 126, 1-(4-FLUORO-2-(PYRIDIN-4-YL)PHENYL)-N-(THIAZOL-2-YL)ISOQUINOLINE-6-SULFONAMIDE]	130	2660	
COc1cc(-c2cccnc2)ccc1-c1nccc2cc(S(=O)(=O)Nc3nccs3)ccc12 [Example 204, 1-(2-METHOXY-4-(PYRIDIN-3-YL)PHENYL)-N-(THIAZOL-2-YL)ISOQUINOLINE-6-SULFONAMIDE]	30	614	
CCOc1ccccc1-c1nccc2cc(S(=O)(=O)Nc3ccncn3)ccc12 [Example 173, 1-(2-ETHOXYPHENYL)-N-(PYRIMIDIN-4-YL)ISOQUINOLINE-6-SULFONAMIDE]	430	8750	
COc1cc(C(F)(F)F)ccc1-c1c(C#N)cnc2cc(S(=O)(=O)Nc3nccs3)ccc12 [Example 284, 3-CYANO-4-(2-METHOXY-4-(TRIFLUOROMETHYL)PHENYL)-N-(THIAZOL-2-YL)QUINOLINE-7-SULFONAMIDE]	60	320	
COc1ccccc1-c1nncc2cc(S(=O)(=O)Nc3nccs3)ccc12 [Example 252, 1-(2-METHOXYPHENYL)-N-(THIAZOL-2-YL)PHTHALAZINE-6-SULFONAMIDE]	120	1920	
COc1cc2ccccc2cc1-c1nccc2cc(S(=O)(=O)Nc3ccncn3)ccc12 [Example 155, 1-(3-METHOXYNAPHTHALEN-2-YL)-N-(PYRIMIDIN-4-YL)ISOQUINOLINE-6-SULFONAMIDE]	30	1130	
COc1ccc(C#N)cc1-c1nccc2cc(S(=O)(=O)Nc3ccncn3)ccc12 [Example 150, 1-(5-CYANO-2-METHOXYPHENYL)-N-(PYRIMIDIN-4-YL)ISOQUINOLINE-6-SULFONAMIDE]	120	7190	
O=S(=O)(Nc1ncns1)c1ccc2c(N3CCC[C@H]3c3ccncc3)cccc2c1 (single isomer, unassigned) [Example 89]	290	2330	
O=S(=O)(Nc1ncc(F)s1)c1ccc2c(-c3ccc(C(F)(F)F)cc3C3CCNCC3)cccc2c1 [Example 113]	80	118	
COc1cc(C(F)(F)F)ccc1-c1cncc2cc(S(=O)(=O)Nc3nccs3)ccc12 [Example 288, 4-(2-METHOXY-4-(TRIFLUOROMETHYL)PHENYL)-N-(THIAZOL-2-YL)ISOQUINOLINE-7-SULFONAMIDE]	40	600	
O=S(=O)(Nc1ncns1)c1ccc2c(N3CCCC3c3cccnc3)cccc2c1 (stereo not shown) [Example 85]	10	173	
COc1cc(C(F)(F)F)ccc1-c1nc(C#N)cc2cc(S(=O)(=O)Nc3nccs3)ccc12 [Example 220, 3-CYANO-1-(2-METHOXY-4-(TRIFLUOROMETHYL)PHENYL)-N-(THIAZOL-2-YL)ISOQUINOLINE-6-SULFONAMIDE]	60	450	
COc1ccccc1-c1ccnc2cc(S(=O)(=O)Nc3nccs3)ccc12 [Example 277, 4-(2-METHOXYPHENYL)-N-(THIAZOL-2-YL)QUINOLINE-7-SULFONAMIDE]	70	340	
COc1cc(F)ccc1-c1nncc2cc(S(=O)(=O)Nc3nccs3)ccc12 [Example 250, 1-(4-FLUORO-2-METHOXYPHENYL)-N-(THIAZOL-2-YL)PHTHALAZINE-6-SULFONAMIDE]	50	1150	
O=S(=O)(Nc1nccs1)c1ccc2c(C3CCCN3C3CCOCC3)nccc2c1 (stereo not shown) [Example 245, 1-(1-(TETRAHYDRO-2H-PYRAN-4-YL)PYRROLIDIN-2-YL)-N-(THIAZOL-2-YL)ISOQUINOLINE-6-SULFONAMIDE 2,2,2-TRIFLUOROACETATE]	2220	30800	
COc1cc(C#N)ccc1-c1ncc(F)c2cc(S(=O)(=O)Nc3ccncn3)ccc12 [Example 218, 1-(4-cyano-2-methoxyphenyl)-4-fluoro-N-(pyrimidin-4-yl)isoquinoline-6-sulfonamide]	70	4630	

SMILES	IC50 (Nav 1.7 [1]) [nM]	IC50 (Nav 1.7 [2]) [nM]	Nav1.7 Single Point Data IWQ (at […]) (%) (Nav 1.7 [1]; at […])
CS(=O)(=O)c1cc(C(F)(F)F)ccc1-c1cccc2cc(S(=O)(=O)Nc3ccncn3)ccc12 [Example 117]	180	2880	
O=S(=O)(Nc1nccs1)c1ccc2c(N3CCC[C@H]3c3ccccc3)nccc2c1 [Example 239, (S)-1-(2-PHENYLPYRROLIDIN-1-YL)-N-(THIAZOL-2-YL)ISOQUINOLINE-6-SULFONAMIDE]	1450	4590	
O=S(=O)(Nc1ncc(F)s1)c1ccc2c(-c3ccc(C(F)(F)F)cc3-n3ccnc3)cccc2c1 [Example 112]	100	459	
O=S(=O)(Nc1ccncn1)c1ccc2c(-c3ccccc3OCC(F)(F)F)nccc2c1 [Example 174, N-(PYRIMIDIN-4-YL)-1-(2-(2,2,2-TRIFLUOROETHOXY)PHENYL)ISOQUINOLINE-6-SULFONAMIDE]	640	29800	
CN(Cc1ccccc1)c1cccc2cc(S(=O)(=O)Nc3ncns3)ccc12 [Example 100, 5-(benzyl(methyl)amino)-N-(1,2,4-thiadiazol-5-yl)naphthalene-2-sulfonamide]	290	1460	
COc1cc(C(F)(F)F)ccc1-c1cncc2cc(S(=O)(=O)Nc3ccncn3)ccc12 [Example 285, 4-(2-METHOXY-4-(TRIFLUOROMETHYL)PHENYL)-N-(PYRIMIDIN-4-YL)ISOQUINOLINE-7-SULFONAMIDE HYDROCHLORIDE]	40	580	
Cn1ccnc1-c1cc(C(F)(F)F)ccc1-c1cccc2cc(S(=O)(=O)Nc3ccncn3)ccc12 [Example 124]	60	502	
COc1cccc(F)c1-c1nccc2cc(S(=O)(=O)Nc3ccncn3)ccc12 [Example 158, 1-(2-FLUORO-6-METHOXYPHENYL)-N-(PYRIMIDIN-4-YL)ISOQUINOLINE-6-SULFONAMIDE]	180	5030	
COc1cc(Cl)ccc1-c1ccnc2cc(S(=O)(=O)Nc3nccs3)ccc12 [Example 275, 4-(4-CHLORO-2-METHOXYPHENYL)-N-(THIAZOL-2-YL)QUINOLINE-7-SULFONAMIDE]	40	420	
COc1cc(C2CC2)ccc1-c1cccc2cc(S(=O)(=O)Nc3ccncn3)ccc12 [Example 125]	40	631	
COc1ccccc1-c1nccc2cc(S(=O)(=O)Nc3ccncn3)ccc12 [Example 140, 1-(2-METHOXYPHENYL)-N-(PYRIMIDIN-4-YL)ISOQUINOLINE-6-SULFONAMIDE]	90	10700	
COc1cc(Cl)ccc1-c1nccc2cc(S(=O)(=O)Nc3ccncn3)ccc12 [Example 160, 1-(4-CHLORO-2-METHOXYPHENYL)-N-(PYRIMIDIN-4-YL)ISOQUINOLINE-6-SULFONAMIDE]	20	1330	
C[C@@H](COc1ccc(Cl)cc1)Oc1nccc2cc(S(=O)(=O)Nc3ccncn3)ccc12 [Example 131, (S)-1-((1-(4-CHLOROPHENOXY)PROPAN-2-YL)OXY)-N-(PYRIMIDIN-4-YL)ISOQUINOLINE-6-SULFONAMIDE]	810	4190	
CNc1cc2cc(S(=O)(=O)Nc3nccs3)ccc2c(-c2ccc(C(F)(F)F)cc2OC)n1 [Example 222, 1-(2-METHOXY-4-(TRIFLUOROMETHYL)PHENYL)-3-(METHYLAMINO)-N-(THIAZOL-2-YL)ISOQUINOLINE-6-SULFONAMIDE]	20	905	
O=S(=O)(Nc1ccncn1)c1ccc2c(OCc3cccc4[nH]ncc34)nccc2c1 [Example 136, 1-((1H-INDAZOL-4-YL)METHOXY)-N-(PYRIMIDIN-4-YL)ISOQUINOLINE-6-SULFONAMIDE]	3590	> 30000	
O=S(=O)(Nc1ccncn1)c1ccc2c(OCc3nccn3Cc3ccc(Cl)cc3)nccc2c1 [Example 133, 1-((1-(4-CHLOROBENZYL)-1H-IMIDAZOL-2-YL)METHOXY)-N-(PYRIMIDIN-4-YL)ISOQUINOLINE-6-SULFONAMIDE]	1830	34100	
O=S(=O)(Nc1nccs1)c1ccc2c(-c3ccn(-c4ccccc4)c3)nccc2c1 [Example 207, 1-(1-PHENYL-1H-PYRROL-3-YL)-N-(THIAZOL-2-YL)ISOQUINOLINE-6-SULFONAMIDE 2,2,2-TRIFLUOROACETATE]	2100	7290	
O=S(=O)(Nc1nccs1)c1ccc2c(-c3ccc(C(F)(F)F)cc3F)nccc2c1 [Example 228, 1-(2-FLUORO-4-(TRIFLUOROMETHYL)PHENYL)-N-(THIAZOL-2-YL)ISOQUINOLINE-6-SULFONAMIDE]	110	1520	
O=S(=O)(Nc1ccncn1)c1ccc2c(-c3cnn(-c4cccc(Cl)c4)c3)nccc2c1 [Example 429, 1-(1-(3-CHLOROPHENYL)-1H-PYRAZOL-4-YL)-N-(PYRIMIDIN-4-YL)ISOQUINOLINE-6-SULFONAMIDE]		> 30000	54.7
